The values below come from article PMC7796031, “Studies of Coumarin Derivatives for Constitutive Androstane Receptor (CAR) Activation” (Molecules, 2020).

One assay has as its system UGT1A1. Put plainly: Protein expression of UGT1A1 (western blot). The assay is classed as cell-based, human. As to the method: 1 × 10^6 cells were seeded in a 10 cm plate, incubated at 37 °C for overnight and treated with various concentrations of compounds for the indicated times. After incubation, the culture medium was removed and washed twice with 2 mL ice-cold 1× PBS. Three hundred μL of protein lysis buffer (150 mM NaCl, 50 mM Tris-HCl (pH 7.4), 1% SDS, 1% Triton X-100, 1 mM PMSF) was added into each plate, scraped with a rubber policeman, collected into a premarked microtube and the incubated in ice for 1 h, sonicated by Ultrasonic Cell Disruptor for three time at 5 s each. The cell lysated was cleared by centrifugation at 12,000× g for 15 min at 4 °C. Supernatants were transferred into a fresh marked microtube and stored at −20 °C for future use.
Protein concentration of each sample was determined using a BCA Protein Assay Kit (Pirece®, Thermo Scientific). Different percentages of SDS-PAGE gels were prepared according to the molecular size of proteins of interest. After complete polymerization of stacking gels, each sample with equal amount of total protein was separated in polyacrylamide gels (stacking gel: 50 v, 60 min; separating gel: 100 v, 60 min). After separating, wet-transfer method was utilized to transfer proteins onto the PVDF membrane. The gels were assembled in the transfer sandwich and put in a transfer tank filled with transfer buffer (25 mM glycine, 0.15% ethanolamine, 20% methanol). The electro-transfer was performed at the voltage of 100 volt for 80 min at 4 °C. After transfer, PVDF-membrane was blocked with 5% BSA in 1× TBS-Tween at room temperature for 1 h. Membrane was washed with 10 mL 1× TBS-Tween three times and incubated with primary antibodies overnight at 4 °C with gentle agitation. After primary antibody was removed, the membrane was washed three times with 10 mL 1× TBS-Tween for 10 min at room temperature with constant shaking. […] The emitted fluorescence from the membrane was caught on a LAS-4000 biomolecule imager (FUJI.).

Assay [1] addresses T1, Constitutive androstane receptor (CAR) (Homo sapiens, UniProt Q14994).
T1 construct: The pGL4-gtPBREM plasmid was transfected into Hep3B cells; endogenous in cells
T1 sequence (Q14994 1-352): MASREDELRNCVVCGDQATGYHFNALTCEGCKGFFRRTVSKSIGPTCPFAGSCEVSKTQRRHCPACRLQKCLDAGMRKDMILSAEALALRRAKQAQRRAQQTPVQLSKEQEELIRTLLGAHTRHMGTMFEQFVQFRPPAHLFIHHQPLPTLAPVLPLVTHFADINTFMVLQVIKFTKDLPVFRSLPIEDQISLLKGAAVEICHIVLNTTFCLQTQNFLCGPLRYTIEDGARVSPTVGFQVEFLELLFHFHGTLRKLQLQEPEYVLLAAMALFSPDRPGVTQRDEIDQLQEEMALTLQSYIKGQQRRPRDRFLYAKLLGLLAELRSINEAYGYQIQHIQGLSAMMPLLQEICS
Put plainly: In vitro CAR activation screening assay (UGT1A1 promoter gtPBREM-pGL4 luciferase reporter in Hep3B-gtPBREM cells). It is filed as cell-based. A digest of the protocol:
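Reporter: Hep3B cells stably carrying the UGT1A1 gtPBREM promoter in pGL4 luciferase (G418-selected), seeded at 1.5×10^5 cells/well overnight and then exposed to compounds at 10 μM for several hours (under 8 h). Luminescence of equal lysate amounts served as the CAR activation read-out. CITCO and scoparone served as reference agonists, and shCAR-transfected cells were used in follow-up.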

Take `COc1cc2ccc(=O)oc2cc1OC` [Compound 39, scoparone]: the “protein expression of UGT1A (CAR downstream gene)” value in the assay on UGT1A1 (Figure 2, after scoparone or CITCO treatment) was “upregulated”. The “luciferase activity” value in assay [1] (assay validation, positive control, indirect agonist) was “enhance luciferase activity”.

In the case of `CC(C)=CCOc1cc2ccc(=O)oc2cc1OCC=C(C)C` [Compound 50, 6,7-diprenoxycoumarin], in the assay on UGT1A1 (Hep3B), the UGT1A1 protein level entry is on record as “not significantly increased”. In addition, the “increased CAR activation fold” value in assay [1] (10 μM, compared to scoparone) is 50%. Besides, in assay [1] (Table 2, 10 μM, (luminescence of compound − luminescence of scoparone)/luminescence of scoparone × 100%, read-out: CAR Activation Fold), the activation at 10 µM was found to be 50%.
